Results published in publication PMC10401713, “Silver(I)-Catalyzed Synthesis of Cuneanes from Cubanes and their Investigation as Isosteres” (Journal of the American Chemical Society, 2023).
Converted amounts (≈) assume the structure as drawn. Read-outs that look alike come from different tables or passages of the source.

Legend:
[1] = Mouse liver microsome stability; format: in vitro ADME; conditions: CD1, mouse, liver microsomes, pH 7.4, 1 µM compound, 0.5 mg/mL protein, NADPH, 37 °C
Procedure: (§1) 7. Microsome Stability Measurements for the Cuneane Analog of Sonidegib Microsome stability measurements were performed by Sygnature Discovery (Nottingham, United […]
(§2) The microsomal stability of a test compound is assessed by spiking compound into tissue microsomes containing NADPH in buffer and sampling for up t o 1 h at 37 °C. Following protein precipitation and centrifugation, the samples are analy zed by UPLC-MS-MS.
(§3) To assess the metabolic stability of a test compound in tissue microsomes.
(§4) • Compound identifier and molecular formula
(§5) • 20 µL of 1 mM test compound in DMSO or 1 mg solid
(§6) Dilutions of a 1 mM test compound DMSO stock solution are prepared in 0.01 M phosphate buffered saline (pH7.4)) so that the final DMSO concentration is 0.1% and the final test compound concentration tested is 1 µM. Following addition of protein (0.5 mg/mL final) and NADPH, the samples are pre-incubated for 10 min prior to the start of the incubation by the addition of […]. The test compound will be incubated (n = 2; 1 µM final concentration) at 37 °C with tissue microsomes. […]
(§7) All the samples will be mixed, centrifuged and the supernatants analysed by UPLC-MS-MS.
(§8) The intrinsic clearance (Clint) and half-life (t1/2) values will be determined from the slope of the parent depletion curve. […]

[2] = logP measurement (Sirius T3, potentiometric shake-flask method, n-octanol/water); format: physicochemical; conditions: n-octanol and water
Procedure: (§9) 6. Physicochemical Measurements
(§10) The logP, pKa in H2O, and aqueous solubility were performed on a Sirius T3 instrument (Pion). The device consists of a pH-meter electrode, a robot that prepares the solutions needed to perform the measurements, and a UV-vis spectrophotometer. Basic titration is performed with a 0.5 M KOH buffer. Acidic titration is performed with a 0.5 M HCl buffer.
(§11) Log P was determined potentiometrically by using the "Shake flask" method, which consists of dissolving part of the solute in question in a volume of n-octanol and water, then performing pH […]
(§12) To obtain the pKa values, a pH-metric titration experiment was carried out. It can measure pKa values between 2 and 12. An acidic or base titrant was added to reach a starting pH at which the sample is ionized. Then, small volumes of 0.5 M HCl or KOH titrant were added and the pH was measured after each addition. Potentiometric measurement of basic compounds were done from pH 2 to pH 12 by adding 0.5 M KOH solution. Potentiometric measurement of acid ic compounds (20, S1, and 14) were done from pH 12 to pH 2 by adding 0.5 M HCl solution. Measurement points were done every 0.2 pH value. After each addition, the sample was stirred for 60 seconds and the pH value was then collected. The titration experiments were done 3 times and the stated values are averages of the 3 […]
(§13) (1 picture or pasted object on this page, not shown here)

[3] = Aqueous solubility (CheqSol method, Sirius T3); format: physicochemical; conditions: for solubility: water, aqueous buffer, thermodynamic from solid
Procedure: as §9
as §10, with “HCl buffer. […]” for “HCl buffer.”
as §13
Solubility measurements were performed using the CheqSol method developed by Pion.22 Because in most cases, compounds are more soluble at pH values where they ionized, the analyte was solubilized in acidic water before pH-titration was performed, measuring the UV-vis spectrum after each addition. The precipitation point was detected from the reduction of the light transmission during UV-vis measurement, or manually when not obvious. The pH-titration was repeated several times around the precipitation point to determine the solubility value by averaging. […]
aqueous solubility (mM) –a […]

[4] = Human liver microsome stability; format: in vitro ADME; conditions: liver microsomes, pH 7.4, 1 µM compound, 0.5 mg/mL protein, NADPH, 37 °C
Procedure: as §1, §2, §3, §4, §5, §6, §7, §8

[5] = parameters: method as in PMID 36763965; conditions: literature value; ref [8b]; cited from earlier work
[6] = parameters: method as in PMID 36763965; conditions: literature value; ref [8b]; cited from earlier work; remark: listed apart in the source
[7] = parameters: method as in PMID 36763965; conditions: literature value; ref [8b]; cited from earlier work; remark: listed apart in the source
[8] = parameters: method as in doi:10.1021/ja983441f; conditions: literature value; ref ([32]); cited from earlier work
[9] = pKa in H2O by pH-metric titration (Sirius T3); format: physicochemical; conditions: water, average of 3 measurements
Procedure: as §9, §10, §11, §12, §13

Q: For C[C@@H]1CN(c2ccc(NC(=O)C34C5C6C3C3C4C3(c3ccc(OC(F)(F)F)cc3)C65)cn2)C[C@H](C)O1 (stereo partly drawn) [compound 19], which microsomal CLint at 1 µM [1] is on record?
A: The microsomal CLint at 1 µM was 61 µL/min/mg.

Q: What about the half-life at 1 µM ([1]; read-out: mouse liver microsome stability t1/2) of the same molecule?
A: Its half-life at 1 µM is 23 min.

Q: What about the logP [2] of the same molecule?
A: The logP was 4.74 ± 0.23.

Q: What about the aqueous solubility [3] of the same molecule?
A: Its aqueous solubility is “too low to be measured”.

Q: And the microsomal CLint at 1 µM [4]?
A: The microsomal CLint at 1 µM was 76 µL/min/mg.

Q: And the half-life at 1 µM ([4]; read-out: human liver microsome stability t1/2)?
A: The half-life at 1 µM was 19 min.

Q: For Cc1c(C(=O)Nc2ccc(N3C[C@@H](C)O[C@@H](C)C3)nc2)cccc1-c1ccc(OC(F)(F)F)cc1 [sonidegib], which “mouse liver microsome stability Clint” value [5] is on record?
A: The value was 26 µL/min/mg.

Q: What about the “mouse liver microsome stability t1/2” value [5] of the same molecule?
A: The value was 53 min.

Q: And the aqueous solubility [6]?
A: The aqueous solubility was <1.6 × 10^–3 (ref [8b]) mM.

Q: And the “human liver microsome stability Clint” value [7]?
A: Its value is 20 µL/min/mg.

Q: And the “human liver microsome stability t1/2” value [7]?
A: The value was 70 min.

Q: And the logP [8]?
A: The logP was 4.26 (ref ([32])).

Q: Which results are given for COC(=O)C12C3C4C5C1C2C3C45C(=O)O (stereo not drawn) [compound 14]?
A: pKa [9]: 3.99 ± 0.02; logP [2]: 0.72 ± 0.01; solubility [3]: 210 mM (≈ 43.3 mg/mL)

Q: Which results are given for COC(=O)c1ccc(C(=O)O)cc1 [compound 20, 4-(methoxycarbonyl)benzoic acid]?
A: pKa [9]: 3.84 ± 0.01; logP [2]: 2.02 ± 0.02; solubility [3]: 1.38 mM (≈ 0.249 mg/mL)

Q: For COC(=O)C12C3C4C1C1C2C3C41C(=O)O (stereo not drawn) [S1], which pKa [9] is on record?
A: The pKa was 3.96 ± 0.01.

Q: What about the logP [2] of the same molecule?
A: The logP was 0.02 ± 0.01.

Q: And the solubility [3]?
A: Its solubility is 149 mM (≈ 30.7 mg/mL).
